Columns and labels:
MCF-7AU = experiment: Cytotoxicity against daunorubicin/verapamil-resistant MCF-7AU not expressing P-170; format: cell-based, human
Excerpt: (§1) The daunorubicin composition of Example 3 {Prep. […] B}.

[1] = test system: human T-lymphoma (Jurkat) cells; experiment: Cytotoxicity in human T-lymphoma (Jurkat) cells, Example 4; format: cell-based
Method: (§2) B. Human ovarian carcinoma cells (CRL157) are precultured in 1% solution of the same block copolymer but without daunorubicin in RPMI 1640 medium supplemented with 10% calf fetal serum. The preparation of part A is added and the mixture is incubated for 60 minutes at 37° C. and the cells then washed three times with RPMI 1640 and cultured in RPMI 1640 supplemented with 10% calf fetal serum for 3 days {Prep. A}. Cytotoxicity is measured, both for this preparation and a parallel preparation of free daunorubicin {Prep. B}, using the method of Alley et al., Cancer Res., 48, 589-601 (1988). The results are as follows:
(§3) A. A 1:1.5 mixture of block copolymers of poly(oxyethylene)-poly(oxypropylene) (pluronics P-85 and L-64) having individual ratios (n) of (oxypropylene) to (oxyethylene) blocks of 1.00 and 1.50, respectively, and a combined value (N) of 1.30, is diluted with RPMI 1640 medium to a final concentration of 2.0% at 4° C. The mixture is incubated for 30 minutes at 37° C. and then sterilely filtered through a 0.22 μm filter. An equal volume of a solution of 200 μg daunorubicin in RPMI 1640 medium is added and this mixture is incubated for 30 minutes at 37° C.
(§4) Daunorubicin in the composition of Example 3 is evaluated for cytotoxicity in (i) human T-lymphoma (Jurkat) cells as described in Example 1 and (ii) normal human mononuclear cells.

[2] = test system: human ovarian cancer cells (CRL157); experiment: Cytotoxicity to human ovarian cancer cells (CRL157), Example 3; format: cell-based
Method: as §2, §3
B. Cytotoxicity to human ovarian cancer cells (CRL157) is measured, both for this preparation {Prep. A} and a parallel preparation of free daunorubicin {Prep. B} as described in Example 1B.

SKVO3 cells = experiment: Cytotoxic activity of plasma of inoculated mice on SKVO3 cells; format: cell-based, human
Method: Anti-neoplastic activity is determined by evaluation of the cytotoxic activity of plasma of mammals inoculated with the test composition (see de Valeriola et el., Cancer Chemother. Pharmacol. 29, 133-140, 1991).
Groups (6 animals/group) of C57B1/6 7-week-old female mice are inoculated i.v. (via the tail vein) with free or micellar (N=1.3) daunorubicin obtained as described in Example 3 {Prep. B and Prep. A, respectively}. Drug concentrations (MTD) are adjusted so that a maximum volume of 0.1 mL is injected in each mouse. The experiment is repeated twice.
To obtain plasma samples, blood (10 μl) is collected from the tail artery one hour after drug administration, diluted 1:10 with sterile RPMI 1640 medium, and centrifuged at 400 g for 15 minutes. […] The cells are incubated for two hours at 37° C. and 5% CO2, and then washed three times with RPMI 1640. The pretreated cells are incubated in RPMI 1640 supplemented with 10% fetal calf serum at 37° C. and 5% CO2 for three days, after which cytotoxicity is determined as described in Example 1.
The procedure of Example 16 is repeated utilizing SKVLB and SRVO3 cells.

[3] = test system: human ovarian carcinoma cells (CRL157); experiment: Cytotoxicity to human ovarian carcinoma cells (CRL157), Example 1; format: cell-based; conditions: Ovarian carcinoma cell
Method: (§5) A. A block copolymer of poly(oxyethylene)-poly(oxypropylene) in which N=0.25 (Pluronic F-68) is diluted with RPMI 1640 medium to a final concentration of 2.0% at 4° C. The mixture is incubated for 30 minutes at 37° C. and then sterilely filtered through a 0.22 μm filter. An equal volume of a solution of 200 μg daunorubicin in RPMI 1640 medium is added and this mixture is incubated for 30 minutes at 37° C.
B. Human ovarian carcinoma cells (CRL157) are precultured in 1% solution of the same block copolymer but without daunorubicin in RPMI 1640 medium supplemented with 10% calf fetal serum. The preparation of part A is added and the mixture is incubated for 60 minutes at 37° C. and the cells then washed three times with RPMI 1640 and cultured in RPMI 1640 supplemented with 10% calf fetal serum for 3 days {Prep. A}. Cytotoxicity is measured, both for this preparation and a parallel preparation of free daunorubicin {Prep. B}, using the method of Alley et al., Cancer Res., 48, 589-601 (1988).

[4] = test system: human T-lymphoma (Jurkat) cells; experiment: Cytotoxicity to human T-lymphoma (Jurkat) cells, Example 1; format: cell-based
Method: as §5, §2
Following the same procedure, cytotoxicity is determined against human T-lymphoma (Jurkat) cells: […]

MTD in mice = conditions: mouse, in vivo, ip, C57B1/6 female mice, 14 days
Excerpt: B and Prep. A, respectively}, and are observed for 14 days.
The MTD is defined as a dose which leads to no daunorubicin-deaths (any higher dose leads to the daunorubicin-related death of at least 1 animal per group). The experiment is repeated twice. The results are reproducible with less that 10% variation.

[5] = test system: normal human mononuclear cells; experiment: Cytotoxicity in normal human mononuclear cells, Example 4; format: cell-based
Method: as §2, §3, §4

Dox-MCF-7 = experiment: Cytotoxicity against daunorubicin-resistant, verapamil-sensitive Dox-MCF-7 expressing P-170; format: cell-based, human
Excerpt: as §1

Work on `COc1cccc2c1C(=O)c1c(O)c3c(c(O)c1C2=O)C[C@@](O)(C(C)=O)C[C@@H]3O[C@H]1C[C@H](N)[C@H](O)[C@H](C)O1` [Prep. B, daunorubicin] yielded an inhibition at 0.016 µg/mL (MCF-7AU; Homo sapiens) of 3%, an inhibition at 0.08 µg/mL (MCF-7AU; Homo sapiens) of 9% and an inhibition at 0.4 µg/mL (MCF-7AU; Homo sapiens) of 37%. The inhibition at 2 µg/mL (MCF-7AU; Homo sapiens) was 65%, the inhibition at 10 µg/mL (MCF-7AU; Homo sapiens) was 89% and the inhibition at 50 µg/mL (MCF-7AU; Homo sapiens) was 100%. For the same molecule, the “IC50 (in words)” value (MCF-7AU; resistant line MCF-7AU, statement for both resistant lines) was “higher IC50 's (is less toxic)”, the inhibition at 0.0032 µg/mL [1] was 21% and the inhibition at 0.016 µg/mL [1] was 36%. It also gave an inhibition at 0.08 µg/mL [1] of 59%, an inhibition at 0.4 µg/mL [1] of 83% and an inhibition at 2 µg/mL [1] of 100%. It also gave an inhibition at 10 µg/mL [1] of 100%, an inhibition at 50 µg/mL [1] of 100% and an inhibition at 0.0032 µg/mL [2] of 2%. The inhibition at 0.016 µg/mL [2] was 10%, the inhibition at 0.08 µg/mL [2] was 29% and the inhibition at 0.4 µg/mL [2] was 50%. For the same molecule, the inhibition at 2 µg/mL [2] was 81%, the inhibition at 10 µg/mL [2] was 100% and the inhibition at 50 µg/mL [2] was 100%. The “Inhibition, %” value (SKVO3 cells; plasma dilution 1:20, 10 mg/kg daunorubicin) was 22%, the “Inhibition, %” value (SKVO3 cells; plasma dilution 1:20, MTD of daunorubicin) was 9% and the “Inhibition, %” value (SKVO3 cells; plasma dilution 1:200, 10 mg/kg daunorubicin) was 6%. The “Inhibition, %” value (SKVO3 cells; plasma dilution 1:200, MTD of daunorubicin) was 0%, the “Inhibition, %” value (SKVO3 cells; plasma dilution 1:2000, 10 mg/kg daunorubicin) was 0% and the “Inhibition, %” value (SKVO3 cells; plasma dilution 1:2000, MTD of daunorubicin) was 0%. For the same molecule, the inhibition at 0.016 µg/mL [3] was 1%, the inhibition at 0.08 µg/mL [3] was 20% and the inhibition at 0.4 µg/mL [3] was 38%. For the same molecule, the inhibition at 2 µg/mL [3] was 53%, the inhibition at 10 µg/mL [3] was 81% and the inhibition at 50 µg/mL [3] was 100%. For the same molecule, the inhibition at 0.0032 µg/mL [4] was 22%, the inhibition at 0.016 µg/mL [4] was 44% and the inhibition at 0.08 µg/mL [4] was 51%. For the same molecule, the inhibition at 0.4 µg/mL [4] was 84%, the inhibition at 2 µg/mL [4] was 100% and the inhibition at 10 µg/mL [4] was 100%. For the same molecule, the inhibition at 50 µg/mL [4] was 100%, the MTD at 336 h (MTD in mice) was 2 mg/kg and the inhibition at 0.0032 µg/mL [5] was 1%. For the same molecule, the inhibition at 0.016 µg/mL [5] was 18%, the inhibition at 0.08 µg/mL [5] was 23% and the inhibition at 0.4 µg/mL [5] was 58%. For the same molecule, the inhibition at 2 µg/mL [5] was 80%, the inhibition at 10 µg/mL [5] was 100% and the inhibition at 50 µg/mL [5] was 100%. It also gave an inhibition at 0.016 µg/mL (Dox-MCF-7; Homo sapiens) of 2%, an inhibition at 0.08 µg/mL (Dox-MCF-7; Homo sapiens) of 7% and an inhibition at 0.4 µg/mL (Dox-MCF-7; Homo sapiens) of 39%. The inhibition at 2 µg/mL (Dox-MCF-7; Homo sapiens) was 62%, the inhibition at 10 µg/mL (Dox-MCF-7; Homo sapiens) was 86% and the inhibition at 50 µg/mL (Dox-MCF-7; Homo sapiens) was 100%. The “IC50 (in words)” value (Dox-MCF-7; resistant line Dox-MCF-7, statement for both resistant lines) was “higher IC50 's (is less toxic)”.
